Data published in PubChem BioAssay AID1963981 (Molecular Pharmacology Branch, DTP, NCI, 2024).
Values belong to the compound of their own block, whether it stands above or below them.

Test system: 354836-022-R-J1-PDC multicell spheroid viability
Assay: Anticancer human tumor 354836-022-R-J1-PDC patient-derived head and neck squamous cell carcinoma cell line growth inhibition [PI3K]
Conditions: for IC50: curve of first compound; for viability, T/C: stronger effect = lower value
Summary of the method: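 Multi-cell spheroids combine tumor cells with HUVEC and human MSCs, treated with targeted agents alone or with inavolisib, alpelisib, duvelisib or copanlisib. Concentrations fall in half-log steps from at or near clinical Cmax, or from 10 microM where Cmax is unknown; viability read-out.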

[1] = second compound 0.0316 µM, first compound 0.0316 µM
[2] = second compound 0.0316 µM, first compound 0.1 µM
[3] = second compound 0.0316 µM, first compound 0.316 µM
[4] = second compound 0.0316 µM, first compound 1 µM
[5] = second compound 0.0316 µM, first compound 3.16 µM
[6] = second compound 0.0316 µM, first compound 10 µM
[7] = second compound 0.1 µM, first compound 0.0316 µM
[8] = second compound 0.1 µM, first compound 0.1 µM
[9] = second compound 0.1 µM, first compound 0.316 µM
[10] = second compound 0.1 µM, first compound 1 µM
[11] = second compound 0.1 µM, first compound 3.16 µM
[12] = second compound 0.1 µM, first compound 10 µM
[13] = second compound 0.316 µM, first compound 0.0316 µM
[14] = second compound 0.316 µM, first compound 0.1 µM
[15] = second compound 0.316 µM, first compound 0.316 µM
[16] = second compound 0.316 µM, first compound 1 µM
[17] = second compound 0.316 µM, first compound 3.16 µM
[18] = second compound 0.316 µM, first compound 10 µM
[19] = second compound 1 µM, first compound 0.0316 µM
[20] = second compound 1 µM, first compound 0.1 µM
[21] = second compound 1 µM, first compound 0.316 µM
[22] = second compound 1 µM, first compound 1 µM
[23] = second compound 1 µM, first compound 3.16 µM
[24] = second compound 1 µM, first compound 10 µM
[25] = second compound 0.00316 µM, first compound 0.0316 µM
[26] = second compound 0.00316 µM, first compound 0.1 µM
[27] = second compound 0.00316 µM, first compound 0.316 µM
[28] = second compound 0.00316 µM, first compound 1 µM
[29] = second compound 0.00316 µM, first compound 3.16 µM
[30] = second compound 0.00316 µM, first compound 10 µM
[31] = second compound 0.01 µM, first compound 0.0316 µM
[32] = second compound 0.01 µM, first compound 0.1 µM
[33] = second compound 0.01 µM, first compound 0.316 µM
[34] = second compound 0.01 µM, first compound 1 µM
[35] = second compound 0.01 µM, first compound 3.16 µM
[36] = second compound 0.01 µM, first compound 10 µM
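Also: spheroids exposed to agents for seven days before the viability read.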

IC50 (second compound 0.0316 µM): > 3 µM
IC50 (second compound 0.1 µM): 2.65 µM
IC50 (second compound 0.316 µM): 2.67 µM
IC50 (second compound 1 µM): > 3 µM
IC50 (second compound 3.16 µM): > 3 µM
IC50 (second compound 10 µM): > 3 µM
SMILES: Cn1cnc2c(F)c(Nc3ccc(Br)cc3Cl)c(C(=O)NOCCO)cc21 + CC(Nc1ncnc2nc[nH]c12)c1cc2cccc(Cl)c2c(=O)n1-c1ccccc1
viability, T/C (second compound 0.0316 µM, first compound 0.00949 µM): 94.3%
viability, T/C (second compound 0.0316 µM, first compound 0.03 µM): 90.4%
viability, T/C (second compound 0.0316 µM, first compound 0.0949 µM): 87.4%
viability, T/C (second compound 0.0316 µM, first compound 0.3 µM): 71.9%
viability, T/C (second compound 0.0316 µM, first compound 0.949 µM): 69.4%
viability, T/C (second compound 0.0316 µM, first compound 3 µM): 49.4%
viability, T/C (second compound 0.1 µM, first compound 0.00949 µM): 89.9%
viability, T/C (second compound 0.1 µM, first compound 0.03 µM): 80.4%
viability, T/C (second compound 0.1 µM, first compound 0.0949 µM): 70.3%
viability, T/C (second compound 0.1 µM, first compound 0.3 µM): 81.3%
viability, T/C (second compound 0.1 µM, first compound 0.949 µM): 64.6%
viability, T/C (second compound 0.1 µM, first compound 3 µM): 47.7%
viability, T/C (second compound 0.316 µM, first compound 0.00949 µM): 89.7%
viability, T/C (second compound 0.316 µM, first compound 0.03 µM): 83.9%
viability, T/C (second compound 0.316 µM, first compound 0.0949 µM): 94.2%
viability, T/C (second compound 0.316 µM, first compound 0.3 µM): 72.1%
viability, T/C (second compound 0.316 µM, first compound 0.949 µM): 74.8%
viability, T/C (second compound 0.316 µM, first compound 3 µM): 46.6%
viability, T/C (second compound 1 µM, first compound 0.00949 µM): 90.5%
viability, T/C (second compound 1 µM, first compound 0.03 µM): 83.8%
viability, T/C (second compound 1 µM, first compound 0.0949 µM): 79.6%
viability, T/C (second compound 1 µM, first compound 0.3 µM): 81.2%
viability, T/C (second compound 1 µM, first compound 0.949 µM): 74.5%
viability, T/C (second compound 1 µM, first compound 3 µM): 55.6%
viability, T/C (second compound 3.16 µM, first compound 0.00949 µM): 99.5%
viability, T/C (second compound 3.16 µM, first compound 0.03 µM): 86.9%
viability, T/C (second compound 3.16 µM, first compound 0.0949 µM): 71.1%
viability, T/C (second compound 3.16 µM, first compound 0.3 µM): 88.8%
viability, T/C (second compound 3.16 µM, first compound 0.949 µM): 81%
viability, T/C (second compound 3.16 µM, first compound 3 µM): 63.5%
viability, T/C (second compound 10 µM, first compound 0.00949 µM): 85.5%
viability, T/C (second compound 10 µM, first compound 0.03 µM): 89.2%
viability, T/C (second compound 10 µM, first compound 0.0949 µM): 87.1%
viability, T/C (second compound 10 µM, first compound 0.3 µM): 77.1%
viability, T/C (second compound 10 µM, first compound 0.949 µM): 68.2%
viability, T/C (second compound 10 µM, first compound 3 µM): 54.8%

IC50 (second compound 0.0316 µM): > 10 µM
IC50 (second compound 0.1 µM): > 10 µM
IC50 (second compound 0.316 µM): > 10 µM
IC50 (second compound 1 µM): > 10 µM
IC50 (second compound 3.16 µM): > 10 µM
IC50 (second compound 10 µM): > 10 µM
SMILES: CC1(C)CCC(CN2CCN(c3ccc(C(=O)NS(=O)(=O)c4ccc(NCC5CCOCC5)c([N+](=O)[O-])c4)c(Oc4cnc5[nH]ccc5c4)c3)CC2)=C(c2ccc(Cl)cc2)C1 + CC(Nc1ncnc2nc[nH]c12)c1cc2cccc(Cl)c2c(=O)n1-c1ccccc1
viability, T/C [1]: 92.4%
viability, T/C [2]: 78%
viability, T/C [3]: 85.5%
viability, T/C [4]: 91.7%
viability, T/C [5]: 71.3%
viability, T/C [6]: 110%
viability, T/C [7]: 81.3%
viability, T/C [8]: 89.1%
viability, T/C [9]: 97.8%
viability, T/C [10]: 99.5%
viability, T/C [11]: 67.2%
viability, T/C [12]: 93%
viability, T/C [13]: 86.3%
viability, T/C [14]: 105%
viability, T/C [15]: 103%
viability, T/C [16]: 97.7%
viability, T/C [17]: 64.1%
viability, T/C [18]: 93%
viability, T/C [19]: 106%
viability, T/C [20]: 92.8%
viability, T/C [21]: 93.4%
viability, T/C [22]: 80.9%
viability, T/C [23]: 66.4%
viability, T/C [24]: 87.2%
viability, T/C (second compound 3.16 µM, first compound 0.0316 µM): 89.1%
viability, T/C (second compound 3.16 µM, first compound 0.1 µM): 106%
viability, T/C (second compound 3.16 µM, first compound 0.316 µM): 95.2%
viability, T/C (second compound 3.16 µM, first compound 1 µM): 85.6%
viability, T/C (second compound 3.16 µM, first compound 3.16 µM): 60.8%
viability, T/C (second compound 3.16 µM, first compound 10 µM): 93.5%
viability, T/C (second compound 10 µM, first compound 0.0316 µM): 90.9%
viability, T/C (second compound 10 µM, first compound 0.1 µM): 87%
viability, T/C (second compound 10 µM, first compound 0.316 µM): 90.2%
viability, T/C (second compound 10 µM, first compound 1 µM): 82.2%
viability, T/C (second compound 10 µM, first compound 3.16 µM): 53%
viability, T/C (second compound 10 µM, first compound 10 µM): 76.2%

IC50 (second compound 0.00316 µM): 4.39 µM
IC50 (second compound 0.01 µM): 4 µM
IC50 (second compound 0.0316 µM): 3.5 µM
IC50 (second compound 0.1 µM): 4.25 µM
IC50 (second compound 0.316 µM): 3.35 µM
IC50 (second compound 1 µM): 2.32 µM
SMILES: CC1(C)CCC(CN2CCN(c3ccc(C(=O)NS(=O)(=O)c4ccc(NCC5CCOCC5)c([N+](=O)[O-])c4)c(Oc4cnc5[nH]ccc5c4)c3)CC2)=C(c2ccc(Cl)cc2)C1 + CC(Nc1ccc2c(c1)OCCn1cc(N3C(=O)OCC3C(F)F)nc1-2)C(N)=O
viability, T/C [25]: 96.5%
viability, T/C [26]: 96.9%
viability, T/C [27]: 87.7%
viability, T/C [28]: 70.5%
viability, T/C [29]: 74.6%
viability, T/C [30]: 8.4%
viability, T/C [31]: 106%
viability, T/C [32]: 91%
viability, T/C [33]: 95.2%
viability, T/C [34]: 81.1%
viability, T/C [35]: 62.8%
viability, T/C [36]: 9.3%
viability, T/C [1]: 89.1%
viability, T/C [2]: 103%
viability, T/C [3]: 92.3%
viability, T/C [4]: 99.5%
viability, T/C [5]: 54%
viability, T/C [6]: 8.28%
viability, T/C [7]: 81.4%
viability, T/C [8]: 81.6%
viability, T/C [9]: 94.2%
viability, T/C [10]: 85.5%
viability, T/C [11]: 63.4%
viability, T/C [12]: 11.4%
viability, T/C [13]: 71%
viability, T/C [14]: 69.2%
viability, T/C [15]: 72.8%
viability, T/C [16]: 69.8%
viability, T/C [17]: 52%
viability, T/C [18]: 10.8%
viability, T/C [19]: 62%
viability, T/C [20]: 56.2%
viability, T/C [21]: 50.2%
viability, T/C [22]: 64.7%
viability, T/C [23]: 47%
viability, T/C [24]: 10.2%

IC50 (second compound 0.00316 µM): 0.148 µM
IC50 (second compound 0.01 µM): 0.22 µM
IC50 (second compound 0.0316 µM): 0.116 µM
IC50 (second compound 0.1 µM): < 0.0316 µM
IC50 (second compound 0.316 µM): < 0.0316 µM
IC50 (second compound 1 µM): < 0.0316 µM
SMILES: Cn1ncc(Cl)c1-c1cc(C(=O)NC(CN)Cc2cccc(F)c2)sc1Cl (stereo not drawn) + COc1c(OCCCN2CCOCC2)ccc2c3n(c(=NC(=O)c4cnc(N)nc4)nc12)CCN3
viability, T/C [25]: 78%
viability, T/C [26]: 56%
viability, T/C [27]: 37.3%
viability, T/C [28]: 23.2%
viability, T/C [29]: 8.77%
viability, T/C [30]: 1.45%
viability, T/C [31]: 73%
viability, T/C [32]: 74.2%
viability, T/C [33]: 37.2%
viability, T/C [34]: 19%
viability, T/C [35]: 8.38%
viability, T/C [36]: 1.92%
viability, T/C [1]: 66.7%
viability, T/C [2]: 52.8%
viability, T/C [3]: 33.1%
viability, T/C [4]: 16.1%
viability, T/C [5]: 8.7%
viability, T/C [6]: 2.85%
viability, T/C [7]: 45.2%
viability, T/C [8]: 33.6%
viability, T/C [9]: 20.1%
viability, T/C [10]: 8.6%
viability, T/C [11]: 2.88%
viability, T/C [12]: 0.98%
viability, T/C [13]: 14.4%
viability, T/C [14]: 10.3%
viability, T/C [15]: 5.2%
viability, T/C [16]: 2.69%
viability, T/C [17]: 3.48%
viability, T/C [18]: 1.06%
viability, T/C [19]: 1.56%
viability, T/C [20]: 1.83%
viability, T/C [21]: 1.63%
viability, T/C [22]: 2.2%
viability, T/C [23]: 1.8%
viability, T/C [24]: 1.4%
